Consider one molecule from US10738051B2, “β-lactamase inhibitors” (priority 2016, dated 2020).

The test system of experiment [1] is E. cloacae ATCC BAA-1143 (AmpC). Briefly: In vitro synergistic inhibitory concentration (SIC) assay. The format is cell-based. The conditions noted are these: Enterobacter cloacae, ATCCBAA1143, 37° C. 20 hours, read-out: minimum inhibitory concentration, used alone. How it is done:
(§1) 2) 30 μL dimethyl sulfoxide was added to columns 2-12 of the 96-V well plate. 60 μL prepared ceftazidime was added to column 1. 30 μL ceftazidime was transferred from column 1 to column 2 and mixed with a pipette. The same operation was continued until column 11, and 30 μL of the mixture in column 11 was discarded. This was the compound mother plate.
(§2) Mix the liquid in the mother plate with a pipette.
(§3) 4) One day before the experiment, the bacterial glycerol stock which was stored in a −80° C. refrigerator was streaked on a trypticase soy agar plate (TSA), and the plate was incubated in a 37° C. incubator overnight. On the day of the experiment, the monoclonal bacterial was suspended in physiological saline and the turbidity of which was adjusted to 0.5 McFarland standard, corresponding to 1×10^8 CFU/ml. This suspension was diluted 100-fold to 1×10^6 CFU/mL with caton-adjusted Mueller-Hnton broth (CAMHB), which was used as an inoculation fluid.
(§4) 5) a 96-U plate was used as a test plate. Firstly, adding 98 μL CAMHB to each well of the test plate and transferring 2 μL solution in the mother plate to the test plate. 100 μL inoculation fluid was added to each well of the test plate.
(§5) 6) The test plate was incubated at 37° C. for 20 hours.
(§6) The above-mentioned method was also used to determine the antibacterial activity of the test compound or the antibiotic when used alone.

Experiment [2] has as its system K. pneumoniae ATCC BAA-2472 (NDM-1). The description is as above. It counts as cell-based. The conditions noted are these: Klebsiella pneumoniae, ATCCBAA2472, 37° C. 20 hours, read-out: minimum inhibitory concentration, used alone. How it is done: as §1, §2, §3, §4, §5, §6
Experiment [3] relates to K. pneumoniae ATCC BAA-2470 (NDM-1). Described as above. It counts as cell-based. As to conditions: Klebsiella pneumoniae, ATCCBAA2470, 37° C. 20 hours, read-out: minimum inhibitory concentration, used alone. As to the method: as §1, §2, §3, §4, §5, §6
For experiment [4], the system named is K. pneumoniae ATCC BAA-1144 (AmpC). The experiment is described as above. It counts as cell-based. The conditions noted are these: Klebsiella pneumoniae, ATCCBAA1144, 37° C. 20 hours, read-out: minimum inhibitory concentration, used alone. How it is done:
as §1, §2, §3, §4, §5, §6

In experiment [5] the test system is K. pneumoniae ATCC BAA-205 (TEM-1/SHV-1/SHV-12). The experiment is described as above. The format is cell-based. As to conditions: Klebsiella pneumoniae, ATCCBAA205, 37° C. 20 hours, read-out: minimum inhibitory concentration, used alone. How it is done:
as §1, §2, §3, §4, §5, §6

For experiment [6], the system named is K. pneumoniae ATCC 51503 (TEM-10/12). Described as above. The format is cell-based. The conditions noted are these: Klebsiella pneumoniae, ATCC51503, 37° C. 20 hours, read-out: minimum inhibitory concentration, used alone. How it is done:
as §1, §2, §3, §4, §5, §6

The test system of experiment [7] is K. pneumoniae ATCC BAA-1899 (KPC). Described as above. It counts as cell-based. As to conditions: Klebsiella pneumoniae, ATCCBAA1899, 37° C. 20 hours, read-out: minimum inhibitory concentration, used alone. How it is done:
as §1, §2, §3, §4, §5, §6

Experiment [8] relates to K. pneumoniae ATCC-700603 (SHV-18). The experiment is described as above. As to conditions: Klebsiella pneumoniae, ATCC700603, 37° C. 20 hours, read-out: minimum inhibitory concentration, used alone. It counts as cell-based. As to the method: as §1, §2, §3, §4, §5, §6
Experiment [9] relates to K. pneumoniae ATCC BAA-2524 (OXA-48). The experiment is described as above. The conditions noted are these: Klebsiella pneumoniae, ATCCBAA2524, 37° C. 20 hours, read-out: minimum inhibitory concentration, used alone. It counts as cell-based. How it is done:
as §1, §2, §3, §4, §5, §6

Experiment [10] has as its system E. coli ATCC BAA-2523 (OXA-48). The description is as above. The format is cell-based. As to conditions: Escherichia coli, ATCCBAA2523, 37° C. 20 hours, read-out: minimum inhibitory concentration, used alone. As to the method:
as §1, §2, §3, §4, §5, §6

Experiment [11] has as its system K. pneumoniae ATCC BAA-1705 (KPC). The description is as above. As to conditions: Klebsiella pneumoniae, ATCCBAA1705, 37° C. 20 hours, read-out: minimum inhibitory concentration, used alone. It counts as cell-based. How it is done:
as §1, §2, §3, §4, §5, §6

In experiment [12] the test system is K. pneumoniae ATCC BAA-1898 (KPC). The description is as above. The format is cell-based. The conditions noted are these: Klebsiella pneumoniae, ATCCBAA1898, 37° C. 20 hours, read-out: minimum inhibitory concentration, used alone. How it is done: as §1, §2, §3, §4, §5, §6
The test system of experiment [13] is K. pneumoniae ATCC 51504 (TEM-10). Described as above. It counts as cell-based. As to conditions: Klebsiella pneumoniae, ATCC51504, 37° C. 20 hours, read-out: minimum inhibitory concentration, used alone. How it is done: as §1, §2, §3, §4, §5, §6
Experiment [14] deals with Klebsiella pneumoniae (ATCC BAA-1705, KPC-2). Put plainly: Mouse lung infection model. The conditions noted are these: ip, combined with ceftazidime. It counts as in vivo, CD-1 mice. As to the method: Female CD-1 mice of about 7 weeks old, weighing 26-28 g; cyclophosphamide was injected at a dose of 150 mg/kg 4 days before infection, and further 100 mg/kg 1 day before infection; the bacteria infected was Klebsiella pneumoniae (ATCC BAA-1705, KPC-2). Compound 1 and the reference compound OP-0595 were synthesized in the laboratory.
Female CD-1 mice were infected with Klebsiella pneumoniae by intranasal instillation. Each mouse was instilled with 50 μL bacterial fluid through nasal cavity at a dose of 3.14E+07 CFU per mouse. At 2 h, 4 h, 6 h and 8 h after infection, each group of mice were treated with a corresponding compound or combined compounds by intraperitoneal injection.
At 10 h after infection, the mice in group 1, 2 and 3 were euthanized, and the lung was taken out and placed in a 50 mL centrifuge tube containing 10 mL sterile normal saline, the tube was placed on wet ice and transferred to BSL-2 laboratory for CFU counting. At 20 h after infection, the mice in group 4, 5 and 6 were euthanized and treated according to the same procedure.
The lungs were ground with an IKA T10 homogenizer (the maximum speed was 20S, repeated once). […] After 24 hours, the plate was taken out and the number of single colonies grown in each homogenate with a gradient dilution, and the amount of bacterial load in the lung of each mouse was calculated.

`N=C(N)NOCCONC(=O)[C@@H]1CC[C@@H]2CN1C(=O)N2OS(=O)(=O)O` [Compound 1]: the MIC in [1] was 16 µg/mL; in experiment [2], more than 128 µg/mL; in experiment [3], more than 128 µg/mL; in [4], 128 µg/mL; in [5] it was 128 µg/mL; in experiment [6] it was more than 128 µg/mL. The MIC is more than 128 µg/mL in experiment [7]; more than 128 µg/mL in [8]; more than 128 µg/mL in experiment [9]; 8 µg/mL in [10]; 128 µg/mL in [11]; more than 128 µg/mL in experiment [12]. Further, the MIC in experiment [13] is more than 128 µg/mL. Besides, the “reduction of the amount of bacterial load in the lung compared with the reference group of OP-0595” value in [14] (female CD-1 mice, K. pneumoniae ATCC BAA-1705 (KPC-2), 25/6.25 mpk and 50/12.5 mpk) is 0.5-1.5 logs. For the same molecule, the “potency compared with reference compound OP-0595” value in experiment [14] (mouse lung infection model) is given as “significantly more potent”.
